This is an account of results in US20250145609A1, “3-SUBSTITUTED PYRIDAZINE COMPOUNDS AS SMARCA2 AND/OR SMARCA4 DEGRADERS” (Aurigene Oncology Limited, priority 2022, published 2025).

What all share (assay type): cell-based
In experiment [1] the test system is VCaP cells. The experiment can be described thus: Anti proliferative activity in VCaP cell line by CellTiter Glo assay. Particulars: Homo sapiens; for EC50: VCaP, 192 h, 8 days incubation, CellTiter Glo luminescence. How it is done: Example-P1: Determination of Anti Proliferative Activity of Compounds in Cell Lines VCaP by Cell Titer Glo©(Promega) Assay
VCaP (ATCC CRL-2876) cells were seeded in 96 well plate flat black clear bottom plates (Corning, Cat. No 3904) using complete DMEM Medium. Next day, compounds listed in the present invention were added to cells from 10 mM stocks made in DMSO (Sigma Cat no. D2650). Each concentration of compound was tested in triplicate with DMSO concentration at a final percentage not exceeding 0.3 in the cells. After the incubation of VCaP cells with compound for 8 days assay was terminated using 50 μl of CellTiter Glo© reagent (Promega, Cat. no G7572). CellTiter-Glo® Luminescent reagent determines the number of viable cells based on quantitation of ATP present which is an indicator of cell number and metabolic activity. Luminescence readings were taken in Victor-3 instrument. Percent inhibition of proliferation was calculated using formula, % inhibition=100−(luminescence value of test/luminescence value of DMSO control)*100. DMSO control (0%)=Cells in complete media with DMSO; blank=Media alone containing DMSO. EC50 was calculated using graph pad prism software.
Herein the group “A” refers to EC50 values lower than l0 nM, group “B” refers to EC50 values between l0 nM-100 nM (both inclusive) and group “C” refers to EC50 values greater than 100 nM.
On the technique in general: In ATP-based viability assays light output follows the ATP content of the culture.

The target of experiment [2] is T1, SMARCA2 (Homo sapiens, UniProt P51531).
T1 construct: endogenous in cells; host or cells: VCaP (ATCC CRL-2876)
The experiment can be described thus: SMARCA2 degradation in VCaP cells by Western blot. As to conditions: at 100 nM, 16 hours. How it is done: (§1) Example-P2: Determination of SMARCA2 and SMARCA4 Degradation in VCaP Cells by Western Blot
(§2) VCaP (ATCC CRL-2876) was plated in 6 well plates using complete Dulbecco's Modified Eagle's Medium. On the third day, compounds of present invention were added to cells from 10 mM stocks made in DMSO (Sigma Cat no. D2650). Each compound was tested at 100 nM concentration with DMSO not exceeding final percentage of 0.3 in the cells. Cells were incubated with the compound for 16 hours followed by harvesting with 1×RIPA lysis buffer (Thermo Fischer, catalogue number #89900) containing protease inhibitor cocktail (Sigma catalogue number #P-8340). Equal amount of protein was loaded on SDS PAGE gel for electrophoresis. Western blot was carried out for detection of either SMARCA2 (Cell signalling technologies, catalogue number #11966) or SMARCA4 antibody (Cell signalling technologies, catalogue number #52251). Beta-Tubulin antibody (Cell signalling technologies, catalogue number #86298) was used as loading control. Percentage of SMARCA2 or SMARCA4 degradation was calculated by using formula: […]
Background: In western blotting, separated proteins are transferred to a membrane and probed.

The target in experiment [3] is T2, SMARCA4 (Homo sapiens, UniProt P51532).
T2 construct: endogenous in cells; host or cells: VCaP (ATCC CRL-2876)
In words: SMARCA4 degradation in VCaP cells by Western blot. Particulars: at 100 nM; for Percent SMARCA4 degradation at 0.1 µM: VCaP, 16 h; for Percent degradation SMARCA4: 16 hours. How it is done:
as §1, §2

The term EC50 denotes the concentration needed to bring the measured effect to its halfway point. Low values mean a more potent agent, high ones a less potent agent.

T1 sequence (P51531 whole entry): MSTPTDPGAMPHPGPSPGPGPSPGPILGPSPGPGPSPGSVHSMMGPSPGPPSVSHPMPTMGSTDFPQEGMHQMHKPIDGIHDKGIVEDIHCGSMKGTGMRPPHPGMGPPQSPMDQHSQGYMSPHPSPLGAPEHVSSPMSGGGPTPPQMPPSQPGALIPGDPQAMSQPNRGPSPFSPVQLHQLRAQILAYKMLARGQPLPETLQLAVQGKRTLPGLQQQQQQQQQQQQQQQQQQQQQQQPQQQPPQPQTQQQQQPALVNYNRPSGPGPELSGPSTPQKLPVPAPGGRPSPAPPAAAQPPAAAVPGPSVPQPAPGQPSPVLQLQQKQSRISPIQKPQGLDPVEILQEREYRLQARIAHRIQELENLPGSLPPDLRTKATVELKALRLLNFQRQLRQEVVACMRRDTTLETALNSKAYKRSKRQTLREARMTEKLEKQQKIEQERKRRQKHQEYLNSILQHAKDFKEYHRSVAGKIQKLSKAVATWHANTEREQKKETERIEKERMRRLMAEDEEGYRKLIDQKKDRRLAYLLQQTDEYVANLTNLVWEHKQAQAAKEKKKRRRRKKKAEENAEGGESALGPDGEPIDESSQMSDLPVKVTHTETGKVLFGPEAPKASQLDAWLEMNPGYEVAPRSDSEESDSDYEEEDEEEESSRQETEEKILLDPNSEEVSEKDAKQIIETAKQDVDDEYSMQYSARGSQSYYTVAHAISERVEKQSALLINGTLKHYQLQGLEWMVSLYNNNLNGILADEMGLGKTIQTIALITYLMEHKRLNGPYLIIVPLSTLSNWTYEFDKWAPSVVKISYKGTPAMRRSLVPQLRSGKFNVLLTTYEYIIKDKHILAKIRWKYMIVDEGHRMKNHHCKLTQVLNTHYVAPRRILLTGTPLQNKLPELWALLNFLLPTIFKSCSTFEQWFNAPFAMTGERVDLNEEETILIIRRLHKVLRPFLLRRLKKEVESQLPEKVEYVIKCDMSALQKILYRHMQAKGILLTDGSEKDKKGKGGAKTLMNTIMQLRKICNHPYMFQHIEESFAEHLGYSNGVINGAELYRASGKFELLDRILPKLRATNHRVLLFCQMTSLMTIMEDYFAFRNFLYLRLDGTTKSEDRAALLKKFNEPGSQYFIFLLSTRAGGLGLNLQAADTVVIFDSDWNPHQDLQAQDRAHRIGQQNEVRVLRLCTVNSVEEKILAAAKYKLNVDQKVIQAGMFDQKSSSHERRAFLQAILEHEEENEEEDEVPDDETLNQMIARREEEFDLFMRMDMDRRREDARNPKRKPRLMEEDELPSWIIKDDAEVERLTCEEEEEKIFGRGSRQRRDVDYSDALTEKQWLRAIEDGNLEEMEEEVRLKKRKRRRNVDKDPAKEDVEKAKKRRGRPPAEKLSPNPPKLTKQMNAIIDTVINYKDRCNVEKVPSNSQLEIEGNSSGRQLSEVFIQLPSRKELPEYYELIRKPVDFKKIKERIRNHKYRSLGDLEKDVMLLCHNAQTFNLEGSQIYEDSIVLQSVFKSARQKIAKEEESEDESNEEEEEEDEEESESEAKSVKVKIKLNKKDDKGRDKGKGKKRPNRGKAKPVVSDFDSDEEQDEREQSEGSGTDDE
T2 sequence (P51532 whole entry): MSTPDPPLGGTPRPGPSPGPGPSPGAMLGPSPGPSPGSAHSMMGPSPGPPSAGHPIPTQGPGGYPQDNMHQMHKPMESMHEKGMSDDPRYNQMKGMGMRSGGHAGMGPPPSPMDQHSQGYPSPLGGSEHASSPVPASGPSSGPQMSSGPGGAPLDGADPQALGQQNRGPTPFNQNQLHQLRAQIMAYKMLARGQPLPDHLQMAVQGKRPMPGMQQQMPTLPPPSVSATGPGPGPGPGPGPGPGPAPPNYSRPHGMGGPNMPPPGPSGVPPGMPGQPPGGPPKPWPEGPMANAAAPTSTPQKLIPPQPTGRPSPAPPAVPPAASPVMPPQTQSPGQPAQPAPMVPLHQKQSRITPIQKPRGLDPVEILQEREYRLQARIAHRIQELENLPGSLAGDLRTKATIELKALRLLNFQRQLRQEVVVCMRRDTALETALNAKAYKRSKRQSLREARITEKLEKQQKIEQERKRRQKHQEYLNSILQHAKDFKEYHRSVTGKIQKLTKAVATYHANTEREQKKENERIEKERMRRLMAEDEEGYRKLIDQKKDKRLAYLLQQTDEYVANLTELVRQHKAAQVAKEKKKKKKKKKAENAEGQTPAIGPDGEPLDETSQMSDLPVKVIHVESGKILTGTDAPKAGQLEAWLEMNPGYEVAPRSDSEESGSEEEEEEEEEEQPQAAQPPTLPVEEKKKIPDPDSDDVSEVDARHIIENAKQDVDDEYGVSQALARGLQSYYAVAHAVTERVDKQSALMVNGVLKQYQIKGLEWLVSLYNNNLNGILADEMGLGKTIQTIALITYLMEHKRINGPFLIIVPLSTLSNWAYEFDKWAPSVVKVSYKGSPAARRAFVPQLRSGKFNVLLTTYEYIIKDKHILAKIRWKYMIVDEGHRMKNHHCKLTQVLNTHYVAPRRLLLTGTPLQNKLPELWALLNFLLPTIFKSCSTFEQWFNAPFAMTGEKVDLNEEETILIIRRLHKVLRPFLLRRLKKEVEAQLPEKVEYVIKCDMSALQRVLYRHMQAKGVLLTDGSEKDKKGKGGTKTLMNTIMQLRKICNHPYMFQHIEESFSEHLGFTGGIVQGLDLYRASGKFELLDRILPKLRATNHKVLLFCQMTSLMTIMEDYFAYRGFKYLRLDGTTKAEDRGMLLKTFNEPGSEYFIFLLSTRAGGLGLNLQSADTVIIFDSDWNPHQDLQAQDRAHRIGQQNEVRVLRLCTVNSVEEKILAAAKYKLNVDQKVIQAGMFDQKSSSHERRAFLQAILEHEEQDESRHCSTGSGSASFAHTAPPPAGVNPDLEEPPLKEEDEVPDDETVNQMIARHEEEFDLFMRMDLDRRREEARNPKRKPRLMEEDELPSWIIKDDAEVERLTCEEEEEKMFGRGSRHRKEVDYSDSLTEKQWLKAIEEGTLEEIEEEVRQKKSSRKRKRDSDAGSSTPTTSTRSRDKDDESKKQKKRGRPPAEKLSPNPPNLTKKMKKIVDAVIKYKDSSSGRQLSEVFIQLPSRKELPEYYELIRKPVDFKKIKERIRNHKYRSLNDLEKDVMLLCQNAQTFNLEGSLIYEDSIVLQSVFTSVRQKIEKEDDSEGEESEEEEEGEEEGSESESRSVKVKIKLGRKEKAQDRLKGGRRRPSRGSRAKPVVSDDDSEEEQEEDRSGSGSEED

`Cc1ncsc1-c1ccc([C@H](C)NC(=O)[C@@H]2C[C@@H](O)CN2C(=O)[C@@H](NC(=O)C(C)N2CCC(c3ccc(-c4cc(-c5ccccc5O)nnc4N)cc3)CC2)C(C)(C)C)cc1` (mixture of isomers) [Compound 32, (2S,4R)-1-((2S)-2-(2-(4-(4-(3-amino-6-(2-hydroxyphenyl)pyridazin-4-yl)phenyl)piperidin-1-yl)propanamido)-3,3-dimethylbutanoyl)-4-hydroxy-N-((S)-1-(4-(4-methylthiazol-5-yl)phenyl)ethyl)pyrrolidine-2-carboxamide] had an EC50 in experiment [1] above 100 nM. Besides, the “Percent degradation SMARCA2” value in experiment [2] came out at 90%. In addition, the Percent SMARCA4 degradation at 0.1 µM in experiment [3] is 0%.
In the case of `Cc1ncsc1-c1ccc([C@H](C)NC(=O)[C@@H]2C[C@@H](O)CN2C(=O)[C@@H](NC(=O)CN2CCC(c3ccc(-c4cc(-c5ccccc5O)nnc4N)cc3)CC2C)C(C)(C)C)cc1` (mixture of isomers) [Compound 35, (2S,4R)-1-((2S)-2-(2-(4-(4-(3-amino-6-(2-hydroxyphenyl)pyridazin-4-yl)phenyl)-2-methylpiperidin-1-yl)acetamido)-3,3-dimethylbutanoyl)-4-hydroxy-N-((S)-1-(4-(4-methylthiazol-5-yl)phenyl)ethyl)pyrrolidine-2-carboxamide], the EC50 in experiment [1] is below 10 nM. Also, the “Percent degradation SMARCA2” value in experiment [2] is 97%. The Percent SMARCA4 degradation at 0.1 µM in experiment [3] came to 88%.
The corresponding values for `Cc1ncsc1-c1ccc([C@H](C)NC(=O)[C@@H]2C[C@@H](O)CN2C(=O)[C@@H](NC(=O)C2CCC(c3ccc(-c4cc(-c5ccccc5O)nnc4N)cc3)CC2)C(C)(C)C)cc1` (mixture of isomers) [Compound 40, (2S,4R)-1-((S)-2-(4-(4-(3-amino-6-(2-hydroxyphenyl)pyridazin-4-yl)phenyl)cyclohexane-1-carboxamido)-3,3-dimethylbutanoyl)-4-hydroxy-N-((S)-1-(4-(4-methylthiazol-5-yl)phenyl)ethyl)pyrrolidine-2-carboxamide] are below 10 nM, 97% and 45%.
For `Cc1ncsc1-c1ccc([C@H](C)NC(=O)[C@@H]2C[C@@H](O)CN2C(=O)[C@@H](NC(=O)CC2CCC(c3ccc(-c4cc(-c5ccccc5O)nnc4N)cc3)CC2)C(C)(C)C)cc1` (mixture of isomers) [Compound 43, (2S,4R)-1-((S)-2-(2-(4-(4-(3-amino-6-(2-hydroxyphenyl)pyridazin-4-yl)phenyl)cyclohexyl)acetamido)-3,3-dimethylbutanoyl)-4-hydroxy-N-((S)-1-(4-(4-methylthiazol-5-yl)phenyl)ethyl)pyrrolidine-2-carboxamide], in experiment [1], the EC50 was below 10 nM. Besides, the “Percent degradation SMARCA2” value in experiment [2] worked out at 97%. In addition, the Percent SMARCA4 degradation at 0.1 µM in experiment [3] was 86%.
Compound `Cc1ncsc1-c1ccc([C@H](C)NC(=O)[C@@H]2C[C@@H](O)CN2C(=O)[C@@H](NC(=O)C(C)N2CCC(c3ccc(-c4cc(-c5ccccc5O)nnc4N)cc3)CC2)C(C)(C)C)cc1` (single isomer, unassigned) [Compound 34] gave a concentration for a half-maximal effect (EC50) in experiment [1] above 100 nM. Besides, the “Percent degradation SMARCA2” value in experiment [2] stood at 91%. Further, the “Percent degradation SMARCA4” value in experiment [3] stood at 0%.
`Cc1ncsc1-c1ccc([C@H](C)NC(=O)[C@@H]2C[C@@H](O)CN2C(=O)[C@@H](NC(=O)CN2CCC(c3ccc(-c4cc(-c5ccccc5O)nnc4N)cc3)CC2C)C(C)(C)C)cc1` (single isomer, unassigned) [Compound 36] displayed an EC50 in experiment [1] below 10 nM. In experiment [2], the “Percent degradation SMARCA2” value amounted to 99%. In experiment [3], this compound came in with a Percent SMARCA4 degradation at 0.1 µM of 86%.
In experiment [1], `Cc1ncsc1-c1ccc([C@H](C)NC(=O)[C@@H]2C[C@@H](O)CN2C(=O)[C@@H](NC(=O)C2CCC(c3ccc(-c4cc(-c5ccccc5O)nnc4N)cc3)CC2)C(C)(C)C)cc1` (single isomer, unassigned) [Compound 42] gave an EC50 below 10 nM. In experiment [2], the “Percent degradation SMARCA2” value came to 99%. For the same compound, the “Percent degradation SMARCA4” value in experiment [3] came out at 94%.
In experiment [1], `Cc1ncsc1-c1ccc([C@H](C)NC(=O)[C@@H]2C[C@@H](O)CN2C(=O)[C@@H](NC(=O)COc2ccc(-c3cc(-c4cc(F)ccc4O)nnc3N)cc2)C(C)(C)C)cc1` [Compound 1, (2S,4R)-1-((S)-2-(2-(4-(3-amino-6-(5-fluoro-2-hydroxyphenyl)pyridazin-4-yl)phenoxy)acetamido)-3,3-dimethylbutanoyl)-4-hydroxy-N—((S)-1-(4-(4-methylthiazol-5-yl)phenyl)ethyl)pyrrolidine-2-carboxamide] showed an EC50 of 10 to 100 nM.
`Cc1ncsc1-c1ccc([C@H](C)NC(=O)[C@@H]2C[C@@H](O)CN2C(=O)[C@@H](NC(=O)C2CCN(c3ccc(-c4cc(-c5ccccc5O)nnc4N)cc3)CC2)C(C)(C)C)cc1` [Compound 47, 1-(4-(3-amino-6-(2-hydroxyphenyl)pyridazin-4-yl)phenyl)-N-((S)-1-((2S,4R)-4-hydroxy-2-(((S)-1-(4-(4-methylthiazol-5-yl)phenyl)ethyl)carbamoyl)pyrrolidin-1-yl)-3,3-dimethyl-1-oxobutan-2-yl)piperidine-4-carboxamide]: the “Percent degradation SMARCA2” value in experiment [2] worked out at 99%. Moreover, in experiment [3], the Percent SMARCA4 degradation at 0.1 µM was 95%.
For `Cc1ncsc1-c1ccc([C@H](C)NC(=O)[C@@H]2C[C@@H](O)CN2C(=O)[C@@H](NC(=O)Cn2cc(-c3ccc(-c4cc(-c5ccccc5O)nnc4N)cc3)cn2)C(C)(C)C)cc1` [Compound 49, (2S,4R)-1-((S)-2-(2-(4-(4-(3-amino-6-(2-hydroxyphenyl)pyridazin-4-yl)phenyl)-1H-pyrazol-1-yl)acetamido)-3,3-dimethylbutanoyl)-4-hydroxy-N-((S)-1-(4-(4-methylthiazol-5-yl)phenyl)ethyl)pyrrolidine-2-carboxamide] the same measures were 66% and 0%.
For `Cc1ncsc1-c1ccc([C@H](C)NC(=O)[C@@H]2C[C@@H](O)CN2C(=O)[C@@H](NC(=O)CN2CCC(Nc3ccc(-c4cc(-c5ccccc5O)nnc4N)cc3)CC2)C(C)(C)C)cc1` [Compound 54, (2S,4R)-1-((S)-2-(2-(4-((4-(3-amino-6-(2-hydroxyphenyl)pyridazin-4-yl)phenyl)amino)piperidin-1-yl)acetamido)-3,3-dimethylbutanoyl)-4-hydroxy-N—((S)-1-(4-(4-methylthiazol-5-yl)phenyl)ethyl)pyrrolidine-2-carboxamide] the same measures were 99% and 97%.
As to `Cc1ncsc1-c1ccc([C@H](C)NC(=O)[C@@H]2C[C@@H](O)CN2C(=O)[C@@H](NC(=O)CN2CCC(N(C)c3ccc(-c4cc(-c5ccccc5O)nnc4N)cc3)CC2)C(C)(C)C)cc1` [Compound 55, (2S,4R)-1-((S)-2-(2-(4-((4-(3-amino-6-(2-hydroxyphenyl)pyridazin-4-yl)phenyl)(methyl)amino)piperidin-1-yl)acetamido)-3,3-dimethylbutanoyl)-4-hydroxy-N—((S)-1-(4-(4-methylthiazol-5-yl)phenyl)ethyl)pyrrolidine-2-carboxamide], the “Percent degradation SMARCA2” value in experiment [2] was determined as 99%. The compound further gave a Percent SMARCA4 degradation at 0.1 µM in experiment [3] of 71%.
Consider `Cc1ncsc1-c1ccc([C@H](C)NC(=O)[C@@H]2C[C@@H](O)CN2C(=O)C(c2cc(N3CCC(N4CCN(c5ccc(-c6cc(-c7ccccc7O)nnc6N)cc5)CC4)CC3)no2)C(C)C)cc1` (stereo partly drawn) [Compound 59, (2S,4R)-1-(2-(3-(4-(4-(4-(3-amino-6-(2-hydroxyphenyl)pyridazin-4-yl)phenyl)piperazin-1-yl)piperidin-1-yl)isoxazol-5-yl)-3-methylbutanoyl)-4-hydroxy-N—((S)-1-(4-(4-methylthiazol-5-yl)phenyl)ethyl)pyrrolidine-2-carboxamide], for which the EC50 in experiment [1] was below 10 nM.
`Cc1ncsc1-c1ccc([C@H](C)NC(=O)[C@@H]2C[C@@H](O)CN2C(=O)C(N2CCC(N3CCN(c4ccc(-c5cc(-c6ccccc6O)nnc5N)cc4)CC3)CC2)C(C)(C)C)cc1` (stereo partly drawn) [Compound 60, (2S,4R)-1-(2-(4-(4-(4-(3-amino-6-(2-hydroxyphenyl)pyridazin-4-yl)phenyl)piperazin-1-yl)piperidin-1-yl)-3,3-dimethylbutanoyl)-4-hydroxy-N—((S)-1-(4-(4-methylthiazol-5-yl)phenyl)ethyl)pyrrolidine-2-carboxamide] gave an EC50 in experiment [1] above 100 nM. Further, the inhibition at 1 µM in experiment [1] (at 1 μM, read-out: % inhibition of proliferation) was 20%.
